The numbers were not newly measured in patent US11464736B2, “Thermally gelling drug formulations” (UNM Rainforest Innovations, priority 2019, dated 2022), which cites them from elsewhere.

Data set [1] concerns the target CYP3A4 metabolizing enzyme (Homo sapiens, UniProt P08684).
Assay in data set [2]: not given
The source holds these as a separate data set.

CYP3A4 metabolizing enzyme, sequence (P08684 whole entry): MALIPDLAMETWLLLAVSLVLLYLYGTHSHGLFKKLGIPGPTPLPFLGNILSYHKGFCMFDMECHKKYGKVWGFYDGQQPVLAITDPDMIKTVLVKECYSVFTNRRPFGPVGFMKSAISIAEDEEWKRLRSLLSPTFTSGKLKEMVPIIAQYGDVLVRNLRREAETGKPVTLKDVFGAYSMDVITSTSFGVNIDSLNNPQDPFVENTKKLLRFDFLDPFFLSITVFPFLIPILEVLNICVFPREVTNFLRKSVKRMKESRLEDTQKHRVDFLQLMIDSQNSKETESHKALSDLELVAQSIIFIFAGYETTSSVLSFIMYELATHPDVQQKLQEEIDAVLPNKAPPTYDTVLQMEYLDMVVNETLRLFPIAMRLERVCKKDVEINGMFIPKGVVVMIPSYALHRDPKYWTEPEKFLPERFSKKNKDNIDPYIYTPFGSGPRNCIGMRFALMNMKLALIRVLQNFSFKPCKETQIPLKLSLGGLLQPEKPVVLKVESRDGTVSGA

`CC(=O)C(C)n1ncn(-c2ccc(N3CCN(c4ccc(OC[C@H]5CO[C@](Cn6cncn6)(c6ccc(Cl)cc6Cl)O5)cc4)CC3)cc2)c1=O` (mixture of isomers) [keto-itraconazole]: the “inhibition of CYP3A4” value in data set [1] is on record as “competitive inhibitors”.
For the compound `CCC(C)n1ncn(-c2ccc(N3CCN(c4ccc(OCC5COC(Cn6cncn6)(c6ccc(Cl)cc6Cl)O5)cc4)CC3)cc2)c1=O` (centres unmarked) [ITZ, Itraconazole], the “log P” value is reported as 5.7-6.2. Besides, the “increase of oral bioavailability when taken with food” value in data set [2] is given as 33-37%.
Take `O=c1[nH]ncn1-c1ccc(N2CCN(c3ccc(OCC4COC(Cn5cncn5)(c5ccc(Cl)cc5Cl)O4)cc3)CC2)cc1` (centres unmarked) [N-desalkyl-itraconazole]: in data set [1], the “inhibition of CYP3A4” value is on record as “competitive inhibitors”.
With hydroxy-itraconazole, in data set [1], the “inhibition of CYP3A4” value is given as “competitive inhibitors”.
